# In ChEMBL document CHEMBL3525928 (Drug Metab Dispos, 2011):
# Key:
# Hepatocyte [1] = conditions: human, hepatocytes, 5 min, 0.05 µM
# Hepatocyte [2] = conditions: human, hepatocytes, 5 min, 0.05 µM; remark: listed apart in the source
# Hepatocyte [3] = conditions: human, hepatocytes, 1 µM
# Hepatocyte [4] = experiment: Drug uptake in sandwich-cultured human hepatocytes measured per mg of protein at 0.05 to 10 uM at 37 degC by Michaelis-Menten kinetics/scintillation spectroscopy; type: ADME, cell-based
# [5] = Drug excretion in urine (unknown origin); type: ADME, tissue-based; conditions: human, read-out: Drug excretion
# Hepatocyte [6] = experiment: Drug uptake in sandwich-cultured human hepatocytes measured per mg of protein at 0.05 uM at 37 degC after 5 mins by scintillation spectroscopy; type: ADME, cell-based
# [7] = Drug uptake in sandwich-cultured human hepatocytes at 0.05 to 10 uM at 37 degC by Michaelis-Menten kinetics/scintillation spectroscopy; type: ADME, cell-based, Hepatocyte
# Hepatocyte [8] = conditions: human, hepatocytes, 5 min, 0.05 µM; remark: listed apart in the source
# [9] = Drug uptake in rat hepatocytes; type: ADME, cell-based, Hepatocyte
# Hepatocyte [10] = conditions: human, hepatocytes, 5 min, 0.05 µM; remark: listed apart in the source
# Hepatocyte [11] = experiment: Uptake clearance in sandwich-cultured human hepatocytes lot Hu4165 […] measured per mg of protein at 0.05 to 1 uM at 37 degC after 0.5 to 2 mins by scintillation spectroscopy in presence of 100 uM rifamycin SV; type: ADME, cell-based
# Hepatocyte [12] = experiment: Drug uptake in sandwich-cultured human hepatocytes lot Hu4165 at 0.05 uM at 37 degC for 5 mins by scintillation spectroscopy in presence of 500 uM digoxin (1% DMSO) cardiac glycosides (reference value: 100 +/- 3.1 to 100 +/- 7.0%); type: ADME, cell-based
# Hepatocyte [13] = conditions: human, hepatocytes, 5 min, 0.05 µM; remark: listed apart in the source
# Hepatocyte [14] = experiment: Uptake clearance in sandwich-cultured human hepatocytes lot Hu4165 […] measured per mg of protein at 0.05 to 1 uM at 37 degC on day 5 by scintillation spectroscopy; type: ADME, cell-based
# Hepatocyte [15] = conditions: human, hepatocytes, 5 min, 0.05 µM; remark: listed apart in the source
# Hepatocyte [16] = experiment: Drug uptake in sandwich-cultured human hepatocytes lot Hu4165 at 0.05 uM at 37 degC for 5 mins by scintillation spectroscopy in presence of 100 uM digoxin cardiac glycosides (reference value: 100 +/- 3.1 to 100 +/- 7.0%); type: ADME, cell-based
# Hepatocyte [17] = conditions: human, hepatocytes, 5 min, 0.05 µM; remark: listed apart in the source
# [18] = Drug excretion in bile (unknown origin); type: ADME, tissue-based; conditions: human, read-out: Drug excretion
# Hepatocyte [19] = conditions: human, hepatocytes, 5 min, 0.05 µM; remark: listed apart in the source
# Hepatocyte [20] = conditions: human, hepatocytes, 5 min, 0.05 µM; remark: listed apart in the source
# Hepatocyte [21] = experiment: Drug uptake in sandwich-cultured human hepatocytes lot Hu4165 at 0.05 uM at 37 degC for 5 mins by scintillation spectroscopy in presence of 100 uM BSP A OATP and […] inhibitor (reference value: 100 +/- 3.1 to 100 +/- 7.0%); type: ADME, cell-based; design: interact cpd dose 100 uM
# Hepatocyte [22] = experiment: Uptake clearance in sandwich-cultured human hepatocytes measured per mg of protein at 0.05 to 10 uM at 37 degC by scintillation spectroscopy; type: ADME, cell-based
# Hepatocyte [23] = experiment: Drug uptake in sandwich-cultured human hepatocytes at 0.05 uM at 37 degC by scintillation spectroscopy; type: ADME, cell-based
# Hepatocyte [24] = experiment: Drug uptake in sandwich-cultured human hepatocytes lot Hu4165 at 0.05 uM at 37 degC for 5 mins by scintillation spectroscopy in presence of 100 uM rifampicin OATP substrate/inhibitor (reference value: 100 +/- 3.1 to 100 +/- 7.0%); type: ADME, cell-based; design: interact cpd dose 100 uM
# Hepatocyte [25] = conditions: human, hepatocytes, 5 min, 0.05 µM; remark: listed apart in the source
# Hepatocyte [26] = conditions: human, hepatocytes, 5 min, 0.05 µM; remark: listed apart in the source
# Hepatocyte [27] = conditions: human, hepatocytes, 5 min, 0.05 µM; remark: listed apart in the source
# Hepatocyte [28] = conditions: human, hepatocytes, 5 min, 0.05 µM; remark: listed apart in the source
# Hepatocyte [29] = conditions: human, hepatocytes, 5 min, 0.05 µM; remark: listed apart in the source
# Hepatocyte [30] = experiment: Drug uptake in sandwich-cultured human hepatocytes measured per mg of protein at 0.05 uM at 4 degC after 5 mins by scintillation spectroscopy; type: ADME, cell-based
# Hepatocyte [31] = conditions: human, hepatocytes, 1 µM; remark: listed apart in the source
# Hepatocyte [32] = experiment: Drug uptake in sandwich-cultured human hepatocytes lot Hu4165 at 0.05 uM at 37 degC for 5 mins by scintillation spectroscopy in presence of 50 uM FCCP mitochondrial uncouplers (reference value: 100 +/- 3.1 to 100 +/- 7.0%); type: ADME, cell-based; design: interact cpd dose 50 uM
# OATP1B3 [33] = biological target: T1, OATP1B3 (Homo sapiens, UniProt Q9NPD5); experiment: Drug uptake ratio assessed as enzyme-mediated uptake in HEK293 cells expressing human OATP1B3 at 1 uM at 37 degC for 3 mins by liquid scintillation spectroscopy relative to wild type; type: ADME, cell-based
# T1 sequence (Q9NPD5 whole entry): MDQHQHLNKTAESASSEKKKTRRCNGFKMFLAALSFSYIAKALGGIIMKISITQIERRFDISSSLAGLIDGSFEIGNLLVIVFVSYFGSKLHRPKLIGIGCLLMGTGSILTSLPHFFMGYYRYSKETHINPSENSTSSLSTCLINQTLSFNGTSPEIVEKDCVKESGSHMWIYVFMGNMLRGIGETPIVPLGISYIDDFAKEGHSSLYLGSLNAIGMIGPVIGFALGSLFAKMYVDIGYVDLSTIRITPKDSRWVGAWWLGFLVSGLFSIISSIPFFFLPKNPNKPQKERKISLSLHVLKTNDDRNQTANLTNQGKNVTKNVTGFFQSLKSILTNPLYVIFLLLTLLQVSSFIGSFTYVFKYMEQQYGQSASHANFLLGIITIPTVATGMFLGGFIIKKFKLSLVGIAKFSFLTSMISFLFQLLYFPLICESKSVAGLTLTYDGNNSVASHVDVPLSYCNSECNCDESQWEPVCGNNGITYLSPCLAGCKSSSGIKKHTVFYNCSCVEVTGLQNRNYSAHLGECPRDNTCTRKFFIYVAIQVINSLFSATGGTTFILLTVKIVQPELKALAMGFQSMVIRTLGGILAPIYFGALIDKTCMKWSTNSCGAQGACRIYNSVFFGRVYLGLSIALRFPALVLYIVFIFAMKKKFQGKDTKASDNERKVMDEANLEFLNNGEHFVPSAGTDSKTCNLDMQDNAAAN
# OATP1B3 [34] = biological target: T1, OATP1B3; experiment: Drug uptake ratio assessed as enzyme-mediated uptake in HEK293 cells expressing human OATP1B3 at 10 uM at 37 degC for 3 mins by liquid scintillation spectroscopy relative to wild type; type: ADME, cell-based
# OATP1B1 [35] = biological target: T2, OATP1B1 (Homo sapiens, UniProt Q9Y6L6); experiment: Drug uptake ratio assessed as enzyme-mediated uptake in HEK293 cells expressing human OATP1B1 at 10 uM at 37 degC for 3 mins by liquid scintillation spectroscopy relative to wild type; type: ADME, cell-based
# T2 sequence (Q9Y6L6 whole entry): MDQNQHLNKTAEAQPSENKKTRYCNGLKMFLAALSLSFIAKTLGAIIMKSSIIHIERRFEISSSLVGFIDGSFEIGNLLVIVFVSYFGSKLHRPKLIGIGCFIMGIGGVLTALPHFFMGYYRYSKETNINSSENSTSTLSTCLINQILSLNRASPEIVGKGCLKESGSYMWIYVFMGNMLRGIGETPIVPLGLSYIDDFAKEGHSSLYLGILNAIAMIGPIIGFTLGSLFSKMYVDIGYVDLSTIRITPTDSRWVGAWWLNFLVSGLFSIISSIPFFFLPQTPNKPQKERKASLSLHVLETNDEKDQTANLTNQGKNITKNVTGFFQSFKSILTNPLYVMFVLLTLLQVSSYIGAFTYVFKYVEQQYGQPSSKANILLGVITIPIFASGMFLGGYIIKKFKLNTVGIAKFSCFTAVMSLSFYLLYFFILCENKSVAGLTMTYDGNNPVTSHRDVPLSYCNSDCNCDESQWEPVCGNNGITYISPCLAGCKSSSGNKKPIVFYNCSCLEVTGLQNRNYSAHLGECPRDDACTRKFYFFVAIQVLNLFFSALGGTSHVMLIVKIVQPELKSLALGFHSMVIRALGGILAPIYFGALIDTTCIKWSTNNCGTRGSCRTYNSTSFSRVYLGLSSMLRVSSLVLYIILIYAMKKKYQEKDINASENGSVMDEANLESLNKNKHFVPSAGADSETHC
# OATP1B3 [36] = biological target: T1, OATP1B3; experiment: Drug uptake ratio assessed as enzyme-mediated uptake in HEK293 cells expressing human OATP1B3 at 1 uM at 37 degC for 3 mins cells pretreated with sodium butyrate by liquid scintillation spectroscopy relative to wild type; type: ADME, cell-based
# OATP2B1 [37] = biological target: T3, OATP2B1 (Homo sapiens, UniProt O94956); experiment: Drug uptake ratio assessed as enzyme-mediated uptake in HEK293 cells expressing human OATP2B1 at 10 uM at 37 degC for 3 mins by liquid scintillation spectroscopy relative to wild type; type: ADME, cell-based
# T3 sequence (O94956 whole entry): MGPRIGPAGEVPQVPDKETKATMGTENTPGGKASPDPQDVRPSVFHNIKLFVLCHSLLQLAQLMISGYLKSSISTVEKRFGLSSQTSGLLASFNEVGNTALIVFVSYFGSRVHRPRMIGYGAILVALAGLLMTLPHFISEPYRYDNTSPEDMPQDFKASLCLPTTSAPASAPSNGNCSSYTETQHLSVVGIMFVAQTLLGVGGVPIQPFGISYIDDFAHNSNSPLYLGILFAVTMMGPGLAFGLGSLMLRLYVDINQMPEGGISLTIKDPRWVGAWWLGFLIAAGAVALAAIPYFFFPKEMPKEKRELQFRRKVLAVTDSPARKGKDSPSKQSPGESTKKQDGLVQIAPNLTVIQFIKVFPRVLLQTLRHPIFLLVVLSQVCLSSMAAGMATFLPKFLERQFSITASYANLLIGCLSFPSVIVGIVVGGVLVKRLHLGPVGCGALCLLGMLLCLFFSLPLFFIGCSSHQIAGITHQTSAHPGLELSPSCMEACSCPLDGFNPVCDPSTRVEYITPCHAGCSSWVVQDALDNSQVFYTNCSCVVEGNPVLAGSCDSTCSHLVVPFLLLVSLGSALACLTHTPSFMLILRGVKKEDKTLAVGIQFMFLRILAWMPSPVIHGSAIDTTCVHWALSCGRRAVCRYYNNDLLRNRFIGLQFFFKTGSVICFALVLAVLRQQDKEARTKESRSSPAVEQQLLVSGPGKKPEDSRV
# OATP1B3 [38] = biological target: T1, OATP1B3; experiment: Drug uptake ratio assessed as enzyme-mediated uptake in HEK293 cells expressing human OATP1B3 at 10 uM at 37 degC for 3 mins cells pretreated with sodium butyrate by liquid scintillation spectroscopy relative to wild type; type: ADME, cell-based
# OATP2B1 [39] = biological target: T3, OATP2B1; experiment: Drug uptake ratio assessed as enzyme-mediated uptake in HEK293 cells expressing human OATP2B1 at 1 uM at 37 degC for 3 mins by liquid scintillation spectroscopy relative to wild type; type: ADME, cell-based
# OATP1B1 [40] = biological target: T2, OATP1B1; experiment: Drug uptake ratio assessed as enzyme-mediated uptake in HEK293 cells expressing human OATP1B1 at 1 uM at 37 degC for 3 mins by liquid scintillation spectroscopy relative to wild type; type: ADME, cell-based
smiles,measurement,setting,value
C[C@H]1O[C@@H](O[C@H]2[C@@H](O)C[C@H](O[C@H]3[C@@H](O)C[C@H](O[C@H]4CC[C@@]5(C)[C@H](CC[C@@H]6[C@@H]5C[C@@H](O)[C@]5(C)[C@@H](C7=CC(=O)OC7)CC[C@]65O)C4)O[C@@H]3C)O[C@@H]2C)C[C@H](O)[C@@H]1O [DIGOXIN],Drug uptake,Hepatocyte [1],79.2%
same,Drug uptake,Hepatocyte [2],115%
same,CLup,Hepatocyte [3],1.88 µL/min/g
same,Vmax,Hepatocyte [4],4.49 pmol/min
same,dose excreted,[5],50%
same,Drug uptake,Hepatocyte [6],153 fmol/min
same,Km at up to 10 µM,[7],2.39 µM
same,Drug uptake,Hepatocyte [8],158%
same,Km,[9],0.18 µM
same,Drug uptake,Hepatocyte [10],90.5%
same,CLup,Hepatocyte [11],4.53 µL/min/g
same,Drug uptake,Hepatocyte [12],55.5%
same,Drug uptake,Hepatocyte [13],50.5%
same,CLup,Hepatocyte [14],3.6 µL/min/g
same,Drug uptake,Hepatocyte [15],87.4%
same,Drug uptake,Hepatocyte [16],48.9%
same,Drug uptake,Hepatocyte [17],55.4%
same,dose excreted,[18],30%
same,Drug uptake,Hepatocyte [19],63.1%
same,Drug uptake,Hepatocyte [20],110%
same,Drug uptake,Hepatocyte [21],113%
same,CLup,Hepatocyte [22],1.88 µL/min/g
same,Drug uptake,Hepatocyte [23],Active
same,Drug uptake,Hepatocyte [24],120%
same,Drug uptake,Hepatocyte [25],67.5%
same,Drug uptake,Hepatocyte [26],163%
same,Drug uptake,Hepatocyte [27],89.9%
same,Drug uptake,Hepatocyte [28],114%
same,Drug uptake,Hepatocyte [29],45%
same,Drug uptake,Hepatocyte [30],1.33 fmol/min
same,CLup,Hepatocyte [31],4.06 µL/min/g
same,Drug uptake,Hepatocyte [32],63.8%
CC(C)c1nc(N(C)S(C)(=O)=O)nc(-c2ccc(F)cc2)c1/C=C/[C@@H](O)C[C@@H](O)CC(=O)O [ROSUVASTATIN],"uptake ratio at 0.05 h, 1 µM",OATP1B3 [33],35
same,"uptake ratio at 0.05 h, 10 µM",OATP1B3 [34],39
same,"uptake ratio at 0.05 h, 10 µM",OATP1B1 [35],1.9
same,"uptake ratio at 0.05 h, 1 µM",OATP1B3 [36],16
same,"uptake ratio at 0.05 h, 10 µM",OATP2B1 [37],6.3
same,"uptake ratio at 0.05 h, 10 µM",OATP1B3 [38],25
same,"uptake ratio at 0.05 h, 1 µM",OATP2B1 [39],6
same,"uptake ratio at 0.05 h, 1 µM",OATP1B1 [40],3.4
Cc1ncc2n1-c1ccc(Cl)cc1C(c1ccccc1F)=NC2 [MIDAZOLAM],"uptake ratio at 0.05 h, 1 µM",OATP1B3 [33],1.7
same,"uptake ratio at 0.05 h, 10 µM",OATP1B3 [34],1.7
same,"uptake ratio at 0.05 h, 10 µM",OATP1B1 [35],0.92
same,"uptake ratio at 0.05 h, 1 µM",OATP1B3 [36],2.1
same,"uptake ratio at 0.05 h, 10 µM",OATP1B3 [38],1.9
same,"uptake ratio at 0.05 h, 1 µM",OATP1B1 [40],0.92
